According to patent publication EP1368020B1, “METHOD FOR IDENTIFYING MAXI-K CHANNEL BLOCKERS” (priority 2001, dated 2002):

What was measured:
Assay type in all cases: cell-based
[1] = target: T1, maxi-K channel (alpha and beta1 subunits) in stably transfected HEK-293 cells (Homo sapiens, UniProt Q12791); assay: FRET membrane potential assay (VIPR), HEK-293 cells stably transfected with alpha and beta1 subunits of the maxi-K channel
T1 construct: expressed in transfected cells
Procedure: Transfection of the alpha and beta1 subunits of the maxi-K channel in HEK-293 cells was carried out as follows: HEK-293 cells were plated in 100 mm tissue culture treated dishes at a density of 3x10^6 cells per dish, and a total of five dishes were prepared. Cells were grown in a medium consisting of Dulbecco's Modified Eagle Medium (DMEM) supplemented with 10% Fetal Bovine serum, 1X L-Glutamine, and 1X Penicillin/Streptomycin, at 37°C, 10% CO2. For transfection with Maxi-K hα (pCIneo) and Maxi-K hβ1 (pIRESpuro) DNAs, 150 µl FuGENE6™ was added dropwise into 10 ml of serum free/phenol-red free DMEM and allowed to incubate at room temperature for 5 minutes. Then, the FuGENE6™ solution was added dropwise to a DNA solution containing 25 µg of each plasmid DNA, and incubated at room temperature for 30 minutes. After the incubation period, 2 ml of the FuGENE6™/DNA solution was added dropwise to each plate of cells and the cells were allowed to grow two days under the same conditions as described above. At the end of the second day, cells were put under selection media which consisted of DMEM supplemented with both 600 µg/ml G418 and 0.75 µg/ml puromycin. Cells were grown until separate colonies were formed. Five colonies were collected and transferred to a 6 well tissue culture treated dish. A total of 75 colonies were collected. Cells were allowed to grow until a confluent monolayer was obtained. Cells were then tested for the presence of maxi-K channel alpha and beta 1 subunits using an assay that monitors binding of ^125I-iberiotoxin-D19Y/Y36F to the channel. Cells expressing ^125I-iberiotoxin-D19Y/Y36F binding activity were then evaluated in a functional assay that monitors the capability of maxi-K channels to control the membrane potential of transfected HEK-293 cells using fluorescence resonance energy transfer (FRET) ABS technology with a VIPR instrument. The colony giving the largest signal to noise ratio was subjected to limiting dilution. For this, cells were resuspended at approximately 5 cells/ml, and 200 µl were plated in individual wells in a 96 well tissue culture treated plate, to add ca. one cell per well. A total of two 96 well plates were made. When a confluent monolayer was formed, the cells were transferred to 6 well tissue culture treated plates. A total of 62 wells were transferred. When a confluent monolayer was obtained, cells were tested using the FRET-functional assay. […]
The plates are loaded into a voltage/ion probe reader (VIPR) instrument, and the fluorescence emission of both CC2DMPE and DiSBAC2(3) are recorded for 10 sec. At this point, 100 µl of high-potassium solution (mM): 140 KCl, 2 CaCl2, 1 MgCl2, 20 Hepes-KOH, pH 7.4, 10 glucose are added and the fluorescence emission of both dyes recorded for an additional 10 sec. […]

[2] = test system: endogenous potassium conductance of HEK-293 cells; assay: FRET membrane potential assay (VIPR), high-potassium addition to untransfected HEK-293 cells; conditions: Figure 1; for effect on the fluorescence signal caused by high-potassium addition: different/increasing concentrations of compound; for efficacy of Compound A or Compound B in the presence of Compound 1: selective maxi-K channel blocker Compound 1 present
Procedure: HEK-293 cells were plated on 96-well poly-D-lysine plates and incubated for about 16 to 24 hours at 37°C. The media was aspirated and the cells were washed once with D-PBS. Cells were incubated with 9 µM coumarin (CC2DMPE)-0.02% pluronic-127 in D-PBS for 30 minutes in the dark. Cells were washed twice with D-PBS, and incubated with 4.5 µM oxanol (DiSBAC2(3)) in the absence (Control) or presence of increasing concentrations of test compound, in the dark for 30 minutes. Plates were loaded onto a VIPR instrument and the fluorescence emission of both dyes was recorded for 10 seconds. A solution containing high-potassium was then added and the fluorescence emission of the dyes was recorded for another 10 seconds. The coumarin/oxanol ratio was calculated under both conditions. Before addition of high-potassium, this ratio was always normalized to 1.
The signal is not affected by the presence of different concentrations of the selective maxi-K channel blocker, Compound 1. […] A useful concentration range for these agents is 3-10 µM. Importantly, in the presence of the selective maxi-K channel blocker Compound 1, the efficacy of either Compound A or Compound B is unaffected.

[3] = target: T2, maxi-K channels transiently expressed in TsA-201 cells (Homo sapiens, UniProt Q12791); assay: FRET membrane potential assay (VIPR), maxi-K channels transiently expressed in TsA-201 cells; conditions: 3 µM, Figure 2
T2 construct: expressed in transfected cells; host or cells: TsA-201 cells, transient transfection
T2 sequence (Q12791 whole entry): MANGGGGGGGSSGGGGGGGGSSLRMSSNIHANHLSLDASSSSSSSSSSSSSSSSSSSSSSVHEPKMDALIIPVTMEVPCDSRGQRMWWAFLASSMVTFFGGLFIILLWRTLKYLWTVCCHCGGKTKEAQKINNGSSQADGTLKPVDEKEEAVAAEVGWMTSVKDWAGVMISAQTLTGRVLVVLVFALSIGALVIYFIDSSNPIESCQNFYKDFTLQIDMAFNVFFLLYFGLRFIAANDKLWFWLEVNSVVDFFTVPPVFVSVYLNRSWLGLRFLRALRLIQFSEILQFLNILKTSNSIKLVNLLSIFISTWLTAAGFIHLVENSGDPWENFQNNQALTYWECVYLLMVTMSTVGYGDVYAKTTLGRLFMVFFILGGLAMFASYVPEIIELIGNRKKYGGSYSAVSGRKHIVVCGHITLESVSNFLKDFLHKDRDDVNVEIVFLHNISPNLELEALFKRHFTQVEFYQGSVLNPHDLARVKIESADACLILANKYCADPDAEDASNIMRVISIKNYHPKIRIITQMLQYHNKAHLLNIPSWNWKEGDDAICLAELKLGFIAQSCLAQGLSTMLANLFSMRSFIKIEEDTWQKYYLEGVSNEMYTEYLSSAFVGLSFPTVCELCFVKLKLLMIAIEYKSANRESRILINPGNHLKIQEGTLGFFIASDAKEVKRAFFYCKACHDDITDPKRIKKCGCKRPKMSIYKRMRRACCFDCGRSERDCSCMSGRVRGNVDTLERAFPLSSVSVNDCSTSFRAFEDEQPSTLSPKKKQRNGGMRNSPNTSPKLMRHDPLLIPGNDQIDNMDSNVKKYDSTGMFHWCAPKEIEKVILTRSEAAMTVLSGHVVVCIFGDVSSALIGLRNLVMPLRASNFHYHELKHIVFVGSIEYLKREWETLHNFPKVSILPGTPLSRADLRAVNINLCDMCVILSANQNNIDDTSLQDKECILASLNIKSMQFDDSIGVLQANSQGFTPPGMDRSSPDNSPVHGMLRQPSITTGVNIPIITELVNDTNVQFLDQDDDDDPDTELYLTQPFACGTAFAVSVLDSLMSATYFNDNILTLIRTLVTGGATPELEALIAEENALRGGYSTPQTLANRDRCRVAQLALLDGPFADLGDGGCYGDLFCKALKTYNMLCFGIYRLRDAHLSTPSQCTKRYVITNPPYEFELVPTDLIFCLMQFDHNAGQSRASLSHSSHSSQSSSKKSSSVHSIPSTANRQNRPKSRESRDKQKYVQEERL
T2 sequence (Q16558 whole entry partner): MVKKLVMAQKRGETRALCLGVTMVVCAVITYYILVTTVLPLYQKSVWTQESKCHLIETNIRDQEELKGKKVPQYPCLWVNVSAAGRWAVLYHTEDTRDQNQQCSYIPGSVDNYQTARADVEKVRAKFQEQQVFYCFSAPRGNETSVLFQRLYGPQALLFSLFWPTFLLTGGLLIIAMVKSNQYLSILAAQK

T1 sequence (Q12791 whole entry): as the sequence (Q12791 whole entry) above
T1 sequence (Q16558 whole entry partner): as the sequence (Q16558 whole entry partner) above

block of the signal generated by addition of a high-potassium solution ([1]; compound alone, no endogenous conductance blocker, Figure 3) | inhibition of the signal generated by addition of a high-potassium solution ([1]; in the presence of Compound A, Figure 3) | effect on control signal (maxi-K channel activity) [3] | Structure (SMILES) | inhibition of the control signal ([1]; 3 µM Compound A present in all wells, increasing concentrations of compound, Figure 4) | effect on the fluorescence signal caused by high-potassium addition [2] | effect on the magnitude of the signal caused by addition of high-potassium solution ([1]; Compound A alone, Figure 3) | efficacy of Compound A or Compound B in the presence of Compound 1 [2]
only partially blocks the signal | complete inhibition of the signal | completely inhibits the control signal | COc1ccc2c(c1)c(CC(=O)N(C(=O)NC1CCCCC1)C1CCCCC1)c(C)n2C(=O)c1ccc(Cl)cc1 [Compound 1] | concentration-dependent inhibition of the control signal | not affected |  | 
 |  |  | CCCNC(=O)OC1CCC(CNC(=O)c2ccccc2OC)(c2ccccc2)CC1 (stereo not shown) [Compound A] |  | concentration-dependent inhibition of the fluorescence signal | no significant effect on the magnitude of the signal | unaffected
 |  |  | COc1ccccc1C(=O)NCC1(c2ccccc2)CCC(=O)CC1 [Compound B] |  | concentration-dependent inhibition of the fluorescence signal |  | unaffected
